Laboratory results reported in ChEMBL document CHEMBL1153550, “In vitro study of Candida tropicalis isolates exhibiting paradoxical growth in the presence of high concentrations of caspofungin” (2007).
≈ marks a conversion by molar mass, not a printed value. Calls of active or inactive are those of the source. The calls are words filed in the database; no cut-off is given here.

Tests used:
[1] = tested on: Candida tropicalis; test: Antifungal activity against > 2 x 10^7 CFU/ml Candida tropicalis isolate 1 in antibiotic medium 3 assessed as partial growth after 24 hrs by broth microdilution method; format: functional, organism-based
[2] = tested on: Candida tropicalis; test: Antifungal activity against > 2 x 10^7 CFU/ml Candida tropicalis isolate 14 in RPMI 1640 medium assessed as partial growth after 24 hrs by broth microdilution method; format: functional, organism-based
[3] = tested on: Candida tropicalis; test: Antifungal activity against > 2 x 10^7 CFU/ml Candida tropicalis isolate 11 in RPMI 1640 medium assessed as partial growth after 24 hrs by broth microdilution method; format: functional, organism-based
[4] = tested on: Candida tropicalis; test: Antifungal activity against > 2 x 10^7 CFU/ml Candida tropicalis isolate 7 in RPMI 1640 medium assessed as partial growth after 24 hrs by broth microdilution method; format: functional, organism-based
[5] = tested on: Candida tropicalis; test: Antifungal activity against > 2 x 10^7 CFU/ml Candida tropicalis isolate 4 in RPMI 1640 medium assessed as partial growth after 24 hrs by broth microdilution method; format: functional, organism-based
[6] = tested on: Candida tropicalis; test: Antifungal activity against > 2 x 10^7 CFU/ml Candida tropicalis isolate 1 in RPMI 1640 medium assessed as partial growth after 24 hrs by broth microdilution method; format: functional, organism-based
[7] = tested on: Candida tropicalis; test: Antifungal activity against 2 x 10^7 CFU/ml Candida tropicalis isolate 12 in antibiotic medium 3 after 24 hrs by broth microdilution method; format: functional; details: isolate 12, 24 h
[8] = tested on: Candida tropicalis; test: Antifungal activity against 2 x 10^7 CFU/ml Candida tropicalis isolate 3 in antibiotic medium 3 after 24 hrs by broth microdilution method; format: functional; details: isolate 3, 24 h
[9] = tested on: Candida tropicalis; test: Antifungal activity against 2 x 10^7 CFU/ml Candida tropicalis isolate 1 in antibiotic medium 3 after 24 hrs by broth microdilution method; format: functional; details: isolate 1, 24 h
[10] = tested on: Candida tropicalis; test: Antifungal activity against 2 x 10^7 CFU/ml Candida tropicalis isolate 13 in RPMI 1640 medium after 24 hrs by broth microdilution method; format: functional; details: isolate 13, 24 h
[11] = tested on: Candida tropicalis; test: Antifungal activity against 2 x 10^7 CFU/ml Candida tropicalis isolate 10 in RPMI 1640 medium after 24 hrs by broth microdilution method; format: functional; details: isolate 10, 24 h
[12] = tested on: Candida tropicalis; test: Antifungal activity against 2 x 10^7 CFU/ml Candida tropicalis isolate 7 in RPMI 1640 medium after 24 hrs by broth microdilution method; format: functional; details: isolate 7, 24 h
[13] = tested on: Candida tropicalis; test: Antifungal activity against 2 x 10^7 CFU/ml Candida tropicalis isolate 3 in RPMI 1640 medium after 24 hrs by broth microdilution method; format: functional; details: isolate 3, 24 h
[14] = tested on: Candida tropicalis; test: Antifungal activity against 2 x 10^7 CFU/ml Candida tropicalis isolate 1 in RPMI 1640 medium after 24 hrs by broth microdilution method; format: functional; details: isolate 1, 24 h
[15] = tested on: Candida tropicalis; test: Antifungal activity against 10^5 CFU/ml Candida tropicalis isolate 5 in RPMI 1640 medium at 12.5 ug/ml treated for 48 hrs followed by incubation in drug free medium for 48 hrs by broth microdilution method; format: functional, organism-based
[16] = tested on: Candida tropicalis; test: Antifungal activity against 10^5 CFU/ml Candida tropicalis isolate 6 in RPMI 1640 medium at 12.5 ug/ml treated for 48 hrs followed by incubation in drug free medium for 48 hrs by broth microdilution method; format: functional, organism-based
[17] = tested on: Candida tropicalis; test: Antifungal activity against 10^5 CFU/ml Candida tropicalis isolate 7 in RPMI 1640 medium at 12.5 ug/ml treated for 48 hrs followed by incubation in drug free medium for 48 hrs by broth microdilution method; format: functional, organism-based
[18] = tested on: Candida tropicalis; test: Antifungal activity against 10^5 CFU/ml Candida tropicalis isolate 14 in RPMI 1640 medium at 12.5 ug/ml treated for 48 hrs followed by incubation in drug free medium for 48 hrs by broth microdilution method; format: functional, organism-based
[19] = tested on: Candida tropicalis; test: Antifungal activity against 10^5 CFU/ml Candida tropicalis isolate 15 in RPMI 1640 medium at 12.5 ug/ml treated for 48 hrs followed by incubation in drug free medium for 48 hrs by broth microdilution method; format: functional, organism-based
[20] = tested on: Candida tropicalis; test: Antifungal activity against Candida tropicalis ATCC 750 in RPMI 1640 medium assessed as paradoxical growth at 6.25 ug/ml after 24 hrs by broth microdilution method; format: functional, organism-based
[21] = tested on: Candida tropicalis; test: Antifungal activity against Candida tropicalis ATCC 750 in RPMI 1640 medium assessed as paradoxical growth at 6.25 ug/ml after 48 hrs by broth microdilution method; format: functional, organism-based
[22] = tested on: Candida tropicalis; test: Antifungal activity against Candida tropicalis isolate 6 in RPMI 1640 medium assessed as paradoxical growth at 12.5 ug/ml after 24 hrs by broth microdilution method; format: functional, organism-based
[23] = tested on: Candida tropicalis; test: Antifungal activity against Candida tropicalis isolate 8 in RPMI 1640 medium assessed as paradoxical growth at 12.5 ug/ml after 48 hrs by broth microdilution method; format: functional, organism-based
[24] = tested on: Candida tropicalis; test: Antifungal activity against Candida tropicalis isolate 15 in RPMI 1640 medium assessed as paradoxical growth at 12.5 ug/ml after 48 hrs by broth microdilution method; format: functional, organism-based
[25] = tested on: Candida tropicalis; test: Antifungal activity against 10^5 CFU/ml Candida tropicalis clinical isolate in antibiotic medium 3 treated for 24 hrs followed by incubation in drug free medium for 48 hrs by broth microdilution method; format: functional, organism-based
[26] = tested on: Candida tropicalis; test: Antifungal activity against 10^5 CFU/ml Candida tropicalis isolate 4 in RPMI 1640 medium at 0.4 to 12.5 ug/ml treated for 48 hrs followed by incubation in drug free medium for 48 hrs by broth microdilution method; format: functional, organism-based
[27] = tested on: Candida tropicalis; test: Antifungal activity Candida tropicalis ATCC 750 in RPMI 1640 medium at 12.5 ug/ml after 24 hrs by time-kill assay; format: functional, organism-based
[28] = tested on: Candida tropicalis; test: Antifungal activity Candida tropicalis ATCC 750 in RPMI 1640 medium at 0.19 to 6.25 ug/ml after 24 hrs by time-kill assay; format: functional, organism-based
[29] = tested on: Candida tropicalis; test: Antifungal activity Candida tropicalis isolate 4 in RPMI 1640 medium at 12.5 ug/ml after 24 hrs by time-kill assay; format: functional, organism-based
[30] = tested on: Candida tropicalis; test: Antifungal activity against 10^5 CFU/ml Candida tropicalis clinical isolates in RPMI 1640 medium at 6.25 ug/ml after 48 hrs followed by incubation in drug free medium for 48 hrs by broth microdilution method; format: functional, organism-based
[31] = tested on: Candida tropicalis; test: Antifungal activity against 10^5 CFU/ml Candida tropicalis isolate 10 in RPMI 1640 medium at 12.5 ug/ml treated for 24 hrs followed by incubation in drug free medium for 48 hrs by broth microdilution method; format: functional, organism-based
[32] = tested on: Candida tropicalis; test: Antifungal activity against 10^5 CFU/ml Candida tropicalis isolate 5 in RPMI 1640 medium at 12.5 ug/ml treated for 24 hrs followed by incubation in drug free medium for 48 hrs by broth microdilution method; format: functional, organism-based
[33] = tested on: Candida tropicalis; test: Antifungal activity against 10^5 CFU/ml Candida tropicalis isolate 4 in RPMI 1640 medium at 12.5 ug/ml treated for 24 hrs followed by incubation in drug free medium for 48 hrs by broth microdilution method; format: functional, organism-based
[34] = tested on: Candida tropicalis; test: Antifungal activity against 10^5 CFU/ml Candida tropicalis isolate 3 in RPMI 1640 medium at 12.5 ug/ml treated for 24 hrs followed by incubation in drug free medium for 48 hrs by broth microdilution method; format: functional, organism-based
[35] = tested on: Candida tropicalis; test: Antifungal activity against > 2 x 10^7 CFU/ml Candida tropicalis isolate 14 in antibiotic medium 3 assessed as partial growth after 24 hrs by broth microdilution method; format: functional, organism-based

For `CC[C@H](C)C[C@H](C)CCCCCCCCC(=O)N[C@H]1C[C@@H](O)[C@@H](NCCN)NC(=O)[C@@H]2[C@@H](O)CCN2C(=O)[C@H]([C@H](O)CCN)NC(=O)[C@H]([C@H](O)[C@@H](O)c2ccc(O)cc2)NC(=O)[C@@H]2C[C@@H](O)CN2C(=O)[C@H]([C@@H](C)O)NC1=O` [CASPOFUNGIN], the Activity [1] was “inactive”, the Activity [2] was “inactive” and the Activity [3] was “inactive”. For the same compound, the Activity [4] was “inactive”, the Activity [5] was “inactive” and the Activity [6] was “inactive”. The MIC [7] was 0.024 mg/L (≈ 0.022 µM), the MIC [8] was 0.024 mg/L (≈ 0.022 µM) and the MIC [9] was 0.024 mg/L (≈ 0.022 µM). For the same compound, the MIC [10] was 0.024 mg/L (≈ 0.022 µM), the MIC [11] was 0.024 mg/L (≈ 0.022 µM) and the MIC [12] was 0.024 mg/L (≈ 0.022 µM). For the same compound, the MIC [13] was 0.024 mg/L (≈ 0.022 µM), the MIC [14] was 0.024 mg/L (≈ 0.022 µM) and the Activity [15] was “inactive”. For the same compound, the Activity [16] was “inactive”, the Activity [17] was “Active” and the Activity [18] was “inactive”. For the same compound, the Activity [19] was “inactive”, the Activity [20] was “inactive” and the Activity [21] was “Active”. The Activity [22] was “inactive”, the Activity [23] was “inactive” and the Activity [24] was “Active”. The Activity [25] was “Active”, the Activity [26] was “inactive” and the Activity [27] was “inactive”. The Activity [28] was “Active”, the Activity [29] was “inactive” and the Activity [30] was “inactive”. The Activity [31] was “inactive”, the Activity [32] was “inactive” and the Activity [33] was “inactive”. For the same compound, the Activity [34] was “inactive” and the Activity [35] was “inactive”.
